ChEMBL document CHEMBL1201862, “PubChem BioAssay data set” (2004)
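48-hour exposure; five concentrations; linearly interpolated endpoints. The concentration for 50% growth inhibition is given as GI50.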 Activity calls are given as the source filed them. Cut-off read from the data, not from the text of the source: active = GI50 up to about 1.1 µM and inactive = higher.

How the values were obtained:
Test in all cases: NCI anticancer screen, dose series, 48 h
[1] = system: SN12C
[2] = system: ACHN
[3] = system: IGROV-1
[4] = system: SF-295
[5] = system: NCI-H460
[6] = system: LOX IMVI
[7] = system: HL-60
[8] = system: SK-MEL-28
[9] = system: HCT-15
[10] = system: SK-MEL-2
[11] = system: SR
[12] = system: RXF 393
[13] = system: NCI-H23
[14] = system: OVCAR-3
[15] = system: SNB-75
[16] = system: NCI-H226
[17] = system: KM12
[18] = system: A549
[19] = system: SF-268
[20] = system: UACC-257

Structure (SMILES)	GI50 [1]	GI50 [2]	GI50 [3]	GI50 [4]	GI50 [5]	GI50 [6]	GI50 [7]	GI50 [8]	GI50 [9]	GI50 [10]	GI50 [11]	GI50 [12]	GI50 [13]	GI50 [14]	GI50 [15]	GI50 [16]	GI50 [17]	GI50 [18]	GI50 [19]	GI50 [20]
O=c1[nH]c2nccnc2c2c([N+](=O)[O-])cccc12	> 100 µM (inactive)	> 100 µM (inactive)	> 100 µM (inactive)	> 100 µM (inactive)	> 100 µM (inactive)	81.8 µM (inactive)	> 100 µM (inactive)	> 100 µM (inactive)	> 100 µM	> 100 µM (inactive)	> 100 µM (inactive)	58.2 µM (inactive)	> 100 µM (inactive)	> 100 µM (inactive)	> 100 µM (inactive)	95.5 µM (inactive)	> 100 µM (inactive)	> 100 µM (inactive)	> 100 µM (inactive)	–
O=C1C(C2=[N+]([O-])c3ccccc3C2=O)=[N+]([O-])c2ccccc21	–	24.8 µM (inactive)	32.1 µM (inactive)	40.7 µM (inactive)	23.1 µM (inactive)	15.6 µM (inactive)	19.4 µM (inactive)	42.9 µM (inactive)	–	–	22.5 µM (inactive)	31.9 µM (inactive)	23.9 µM (inactive)	16.3 µM (inactive)	35.1 µM (inactive)	25.5 µM (inactive)	> 10 µM (inactive)	26.4 µM (inactive)	28.2 µM (inactive)	–
NC(=S)N/N=C/c1nccc2ccccc12	0.682 µM (active)	0.0254 µM (active)	0.762 µM (active)	0.168 µM (active)	0.415 µM (active)	0.322 µM (active)	0.393 µM (active)	2.37 µM (inactive)	0.975 µM	2.7 µM (inactive)	0.664 µM (active)	0.257 µM (active)	0.459 µM (active)	0.307 µM (active)	0.578 µM (active)	–	0.873 µM (active)	0.409 µM (active)	0.377 µM (active)	–
O=C(CN1CCCCC1)CC(O)(C(F)(F)F)C(F)(F)F	–	> 100 µM (inactive)	> 100 µM (inactive)	> 100 µM (inactive)	> 100 µM (inactive)	> 100 µM (inactive)	> 100 µM (inactive)	> 100 µM (inactive)	> 100 µM	> 100 µM (inactive)	> 100 µM (inactive)	> 100 µM (inactive)	> 100 µM (inactive)	> 100 µM (inactive)	20.5 µM (inactive)	> 100 µM (inactive)	> 100 µM (inactive)	> 100 µM (inactive)	–	> 100 µM (inactive)
CC[C@@H]1CC[C@@H]2[C@H](CC[C@]3(C)[C@@H](O[N+](=O)[O-])CC[C@@H]23)[C@H]1C(C)=O	43.3 µM (inactive)	28.4 µM (inactive)	34.7 µM (inactive)	42.6 µM (inactive)	27.4 µM (inactive)	20 µM (inactive)	13.5 µM (inactive)	30.3 µM (inactive)	22.2 µM	–	25.6 µM (inactive)	28.2 µM (inactive)	28.1 µM (inactive)	64.1 µM (inactive)	27.6 µM (inactive)	26.5 µM (inactive)	17.3 µM (inactive)	28.4 µM (inactive)	24.5 µM (inactive)	20 µM (inactive)
O=C(CN1CCCC1=O)CS(=O)(=O)c1ccccc1	–	> 100 µM (inactive)	> 100 µM (inactive)	> 100 µM (inactive)	> 100 µM (inactive)	> 100 µM (inactive)	> 100 µM (inactive)	> 100 µM (inactive)	–	> 100 µM (inactive)	> 100 µM (inactive)	> 100 µM (inactive)	> 100 µM (inactive)	> 100 µM (inactive)	> 100 µM (inactive)	> 100 µM (inactive)	> 100 µM (inactive)	> 100 µM (inactive)	> 100 µM (inactive)	> 100 µM (inactive)
C/C=C/[C@@H]1[C@H]2C(=O)[C@]3(Cl)[C@@H](/C=C/C)[C@@H]3C(=O)[C@@]12Cl	> 100 µM (inactive)	> 100 µM (inactive)	> 100 µM (inactive)	> 100 µM (inactive)	> 100 µM (inactive)	> 100 µM (inactive)	> 100 µM (inactive)	> 100 µM (inactive)	> 100 µM	> 100 µM (inactive)	> 100 µM (inactive)	55.3 µM (inactive)	> 100 µM (inactive)	> 100 µM (inactive)	53.3 µM (inactive)	> 100 µM (inactive)	> 100 µM (inactive)	> 100 µM (inactive)	> 100 µM (inactive)	> 100 µM (inactive)
COc1cc(Nc2nc3ccccc3nc2-c2cccs2)cc(OC)c1OC	30.9 µM (inactive)	16.4 µM (inactive)	–	22.8 µM (inactive)	33.7 µM (inactive)	45.6 µM (inactive)	15.2 µM (inactive)	52.1 µM (inactive)	19 µM	85.3 µM (inactive)	26.1 µM (inactive)	16.6 µM (inactive)	50.6 µM (inactive)	43.8 µM (inactive)	40.6 µM (inactive)	66.7 µM (inactive)	–	21 µM (inactive)	25.8 µM (inactive)	28.8 µM (inactive)
CN(C)c1ccc(/C=N\NC(=O)Nc2cccc3ccccc23)cc1	11.8 µM (inactive)	6.98 µM (inactive)	9.91 µM (inactive)	–	4.31 µM (inactive)	4.15 µM (inactive)	2.03 µM (inactive)	19.1 µM (inactive)	1.53 µM	2.9 µM (inactive)	1.6 µM (inactive)	20.7 µM (inactive)	4.75 µM (inactive)	–	9.02 µM (inactive)	0.208 µM (active)	2.61 µM (inactive)	9.57 µM (inactive)	13 µM (inactive)	3.74 µM (inactive)
CC1=C2C(=O)c3ccccc3C(=O)[C@H]2[C@H]2CCO[C@H]2O1	20.9 µM (inactive)	20.9 µM (inactive)	14.2 µM (inactive)	23 µM (inactive)	21 µM (inactive)	22.3 µM (inactive)	27.7 µM (inactive)	24.3 µM (inactive)	25.6 µM	18.8 µM (inactive)	35.2 µM (inactive)	14.4 µM (inactive)	20.1 µM (inactive)	19.1 µM (inactive)	19.8 µM (inactive)	71 µM (inactive)	24.5 µM (inactive)	32.2 µM (inactive)	17.7 µM (inactive)	18.5 µM (inactive)
CCOC(=O)O/N=C1/C(=C2/C(=O)Nc3ccccc32)Nc2ccccc21	4.41 µM (inactive)	4.41 µM (inactive)	4.34 µM (inactive)	8.73 µM (inactive)	3.13 µM (inactive)	4.8 µM (inactive)	4.95 µM (inactive)	10.9 µM (inactive)	2.7 µM	2.29 µM (inactive)	3.61 µM (inactive)	1.24 µM (inactive)	4.47 µM (inactive)	2.15 µM (inactive)	3.4 µM (inactive)	–	0.192 µM (active)	4.56 µM (inactive)	5.73 µM (inactive)	10.2 µM (inactive)
Cc1cc(-c2ccc(C(=O)C(c3ccccc3)(c3ccccc3)c3ccccc3)[nH]2)on1	19.1 µM (inactive)	–	16.9 µM (inactive)	14.2 µM (inactive)	7.21 µM (inactive)	19.5 µM (inactive)	3.56 µM (inactive)	17.6 µM (inactive)	17.5 µM	14.6 µM (inactive)	2.17 µM (inactive)	2.2 µM (inactive)	15 µM (inactive)	22.1 µM (inactive)	20.4 µM (inactive)	16.9 µM (inactive)	15.6 µM (inactive)	12 µM (inactive)	18.7 µM (inactive)	32 µM (inactive)
COC(=O)c1cncc2c1CC1C3(C(=O)OC)C=NC(C4C(CO)=CCC43)C21C (stereo not drawn)	> 100 µM (inactive)	> 100 µM (inactive)	> 100 µM (inactive)	> 100 µM (inactive)	> 100 µM (inactive)	> 100 µM (inactive)	> 100 µM (inactive)	> 100 µM (inactive)	> 100 µM	> 100 µM (inactive)	> 100 µM (inactive)	> 100 µM (inactive)	> 100 µM (inactive)	–	83.4 µM (inactive)	> 100 µM (inactive)	> 100 µM (inactive)	> 100 µM (inactive)	> 100 µM (inactive)	> 100 µM (inactive)
Cc1csc2[n+]1C(=O)/C(=C\c1ccc([N+](=O)[O-])cc1)S2	37.4 µM (inactive)	25.4 µM (inactive)	–	23.9 µM (inactive)	22.9 µM (inactive)	22.5 µM (inactive)	26.2 µM (inactive)	36.9 µM (inactive)	–	25.6 µM (inactive)	32.5 µM (inactive)	29 µM (inactive)	18.7 µM (inactive)	15.3 µM (inactive)	20.3 µM (inactive)	4.1 µM (inactive)	20.5 µM (inactive)	27.4 µM (inactive)	20.3 µM (inactive)	29.9 µM (inactive)
CCOC1c2cc(C(C)C)c(O)c(O)c2[C@@]23CCCC(C)(C)C2C1OC3=O (stereo partly drawn)	94 µM (inactive)	78 µM (inactive)	> 100 µM (inactive)	> 100 µM (inactive)	> 100 µM (inactive)	> 100 µM (inactive)	93.1 µM (inactive)	> 100 µM (inactive)	91 µM	> 100 µM (inactive)	61.4 µM (inactive)	30.3 µM (inactive)	> 100 µM (inactive)	84.5 µM (inactive)	47.8 µM (inactive)	> 100 µM (inactive)	–	82.4 µM (inactive)	> 100 µM (inactive)	> 100 µM (inactive)
